Earlier results, collected in article PMC6748410, “A phase 2 study of an oral mTORC1/mTORC2 kinase inhibitor (CC-223) for non-pancreatic neuroendocrine tumors with or without carcinoid symptoms” (PLoS ONE, 2019).

Test system: NET arising from the pancreas, lung, or GI tract
Parameters: method as in PMID 26703889, PMID 21306238
Conditions: cited from earlier work

For `CO[C@H]1C[C@@H]2CC[C@@H](C)[C@@](O)(O2)C(=O)C(=O)N2CCCC[C@H]2C(=O)O[C@H]([C@H](C)C[C@@H]2CC[C@@H](OCCO)[C@H](OC)C2)CC(=O)[C@H](C)/C=C(\C)[C@@H](O)[C@@H](OC)C(=O)[C@H](C)C[C@H](C)/C=C/C=C/C=C/1C` [everolimus], the “Median progression-free survival (PFS)” value is given as 11.0 months.
